Measured values from ChEMBL document CHEMBL1153513, “Sildenafil is a strong activator of mammalian carbonic anhydrase isoforms I-XIV” (Bioorg Med Chem, 2009).

Experiments:
[1] = target: Carbonic anhydrase 6 (Homo sapiens) (UniProt P23280); experiment: Activation of human recombinant carbonic anhydrase 6 by stopped flow CO2 hydration method
[2] = target: Carbonic anhydrase 13 (Mus musculus) (UniProt Q9D6N1); experiment: Activation of mouse recombinant carbonic anhydrase 13 by stopped flow CO2 hydration method
[3] = tested on: Rattus norvegicus; experiment: Activation of carbonic anhydrase in Sprague-Dawley rat red blood cells at 1 mg/kg, po after 1 hr by colorimetry relative to control; assay type: functional
[4] = target: Carbonic anhydrase 1 (Homo sapiens) (UniProt P00915); experiment: Activation of human recombinant carbonic anhydrase 1 by stopped flow CO2 hydration method
[5] = target: Carbonic anhydrase 5B, mitochondrial (Homo sapiens) (UniProt Q9Y2D0); experiment: Activation of human recombinant carbonic anhydrase 5B by stopped flow CO2 hydration method
[6] = target: Carbonic anhydrase 12 (Homo sapiens) (UniProt O43570); experiment: Activation of human recombinant carbonic anhydrase 12 catalytic domain by stopped flow CO2 hydration method
[7] = target: Carbonic anhydrase 9 (Homo sapiens) (UniProt Q16790); experiment: Activation of human recombinant carbonic anhydrase 9 catalytic domain by stopped flow CO2 hydration method
[8] = target: Carbonic anhydrase 3 (Homo sapiens) (UniProt P07451); experiment: Activation of human recombinant carbonic anhydrase 3 by stopped flow CO2 hydration method
[9] = target: Carbonic anhydrase 7 (Homo sapiens) (UniProt P43166); experiment: Activation of human recombinant carbonic anhydrase 7 by stopped flow CO2 hydration method
[10] = target: Carbonic anhydrase 5A, mitochondrial (Homo sapiens) (UniProt P35218); experiment: Activation of human recombinant carbonic anhydrase 5A by stopped flow CO2 hydration method
[11] = target: Carbonic anhydrase 2 (Homo sapiens) (UniProt P00918); experiment: Activation of human recombinant carbonic anhydrase 2 by stopped flow CO2 hydration method
[12] = target: Carbonic anhydrase 4 (Homo sapiens) (UniProt P22748); experiment: Activation of human recombinant carbonic anhydrase 4 by stopped flow CO2 hydration method
[13] = target: Carbonic anhydrase 14 (Homo sapiens) (UniProt Q9ULX7); experiment: Activation of human recombinant carbonic anhydrase 14 by stopped flow CO2 hydration method
[14] = Half life in po dosed human plasma; assay type: ADME, organism-based
[15] = tested on: Rattus norvegicus; experiment: Activation of carbonic anhydrase in Sprague-Dawley rat red blood cells at 1 mg/kg, po after 5 hrs by colorimetry relative to control; assay type: functional
[16] = tested on: Rattus norvegicus; experiment: Activation of carbonic anhydrase in Sprague-Dawley rat red blood cells at 1 mg/kg, po after 3 hrs by colorimetry relative to control; assay type: functional

Sequence of Carbonic anhydrase 6 (Homo sapiens) (P23280 whole entry): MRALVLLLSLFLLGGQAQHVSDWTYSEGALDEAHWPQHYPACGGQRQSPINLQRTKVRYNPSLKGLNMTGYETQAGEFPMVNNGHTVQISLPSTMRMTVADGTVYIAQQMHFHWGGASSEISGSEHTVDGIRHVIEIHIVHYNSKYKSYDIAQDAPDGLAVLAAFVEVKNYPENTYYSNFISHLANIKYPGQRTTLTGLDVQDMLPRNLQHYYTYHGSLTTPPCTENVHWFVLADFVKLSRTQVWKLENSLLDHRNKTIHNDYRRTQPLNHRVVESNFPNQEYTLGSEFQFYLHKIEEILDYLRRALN
Sequence of Carbonic anhydrase 5A, mitochondrial (Homo sapiens) (P35218 whole entry): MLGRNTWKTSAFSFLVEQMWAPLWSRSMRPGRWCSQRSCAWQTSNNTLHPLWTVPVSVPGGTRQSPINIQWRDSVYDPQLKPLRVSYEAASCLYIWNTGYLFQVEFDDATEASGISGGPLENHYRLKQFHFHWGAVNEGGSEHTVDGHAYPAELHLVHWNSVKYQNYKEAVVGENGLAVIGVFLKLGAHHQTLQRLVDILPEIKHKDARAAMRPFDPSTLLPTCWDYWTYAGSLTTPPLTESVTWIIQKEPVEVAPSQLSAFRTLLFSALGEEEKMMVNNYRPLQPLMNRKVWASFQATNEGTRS
Sequence of Carbonic anhydrase 4 (Homo sapiens) (P22748 whole entry): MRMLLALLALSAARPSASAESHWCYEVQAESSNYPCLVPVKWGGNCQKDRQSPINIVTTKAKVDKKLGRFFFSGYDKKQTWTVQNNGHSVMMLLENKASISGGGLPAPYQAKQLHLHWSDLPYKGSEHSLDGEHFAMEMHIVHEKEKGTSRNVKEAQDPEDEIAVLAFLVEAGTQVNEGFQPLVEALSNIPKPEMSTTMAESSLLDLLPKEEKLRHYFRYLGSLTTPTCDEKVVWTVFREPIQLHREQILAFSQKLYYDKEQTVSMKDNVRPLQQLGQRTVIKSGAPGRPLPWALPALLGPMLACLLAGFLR
Sequence of Carbonic anhydrase 5B, mitochondrial (Homo sapiens) (Q9Y2D0 whole entry, the tested form may be a part): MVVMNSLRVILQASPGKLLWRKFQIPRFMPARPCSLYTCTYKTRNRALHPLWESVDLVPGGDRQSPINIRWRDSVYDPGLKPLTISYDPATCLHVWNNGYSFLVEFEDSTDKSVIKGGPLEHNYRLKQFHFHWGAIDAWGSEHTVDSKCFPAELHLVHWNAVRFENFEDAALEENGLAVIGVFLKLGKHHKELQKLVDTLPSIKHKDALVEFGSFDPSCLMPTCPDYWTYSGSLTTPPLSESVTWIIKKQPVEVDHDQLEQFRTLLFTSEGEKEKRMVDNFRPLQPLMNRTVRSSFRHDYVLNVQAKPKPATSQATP
Sequence of Carbonic anhydrase 14 (Homo sapiens) (Q9ULX7 whole entry): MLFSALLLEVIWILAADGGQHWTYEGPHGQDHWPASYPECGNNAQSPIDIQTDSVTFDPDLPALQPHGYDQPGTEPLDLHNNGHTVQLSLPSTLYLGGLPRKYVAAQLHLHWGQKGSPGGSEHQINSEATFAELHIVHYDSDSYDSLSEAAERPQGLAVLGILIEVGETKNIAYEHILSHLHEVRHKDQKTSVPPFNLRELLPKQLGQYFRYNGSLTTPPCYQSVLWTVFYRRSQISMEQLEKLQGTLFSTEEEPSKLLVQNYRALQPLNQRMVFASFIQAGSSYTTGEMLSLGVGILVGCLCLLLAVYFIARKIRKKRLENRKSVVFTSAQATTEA
Sequence of Carbonic anhydrase 7 (Homo sapiens) (P43166 whole entry): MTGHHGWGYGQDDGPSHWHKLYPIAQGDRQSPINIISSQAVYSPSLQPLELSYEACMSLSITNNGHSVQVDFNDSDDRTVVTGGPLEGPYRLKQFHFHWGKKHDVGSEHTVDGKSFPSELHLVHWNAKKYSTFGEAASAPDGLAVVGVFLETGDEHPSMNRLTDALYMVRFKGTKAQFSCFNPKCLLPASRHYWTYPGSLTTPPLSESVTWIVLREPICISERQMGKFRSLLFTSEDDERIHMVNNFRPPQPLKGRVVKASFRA
Sequence of Carbonic anhydrase 3 (Homo sapiens) (P07451 whole entry): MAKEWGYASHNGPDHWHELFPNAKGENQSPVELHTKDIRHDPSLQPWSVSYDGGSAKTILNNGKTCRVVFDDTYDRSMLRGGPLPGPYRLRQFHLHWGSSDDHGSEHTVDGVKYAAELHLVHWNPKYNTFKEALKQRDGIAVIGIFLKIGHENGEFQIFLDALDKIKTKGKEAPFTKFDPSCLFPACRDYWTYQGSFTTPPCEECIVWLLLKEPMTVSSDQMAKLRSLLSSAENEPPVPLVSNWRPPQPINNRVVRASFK
Sequence of Carbonic anhydrase 13 (Mus musculus) (Q9D6N1 whole entry, looked up): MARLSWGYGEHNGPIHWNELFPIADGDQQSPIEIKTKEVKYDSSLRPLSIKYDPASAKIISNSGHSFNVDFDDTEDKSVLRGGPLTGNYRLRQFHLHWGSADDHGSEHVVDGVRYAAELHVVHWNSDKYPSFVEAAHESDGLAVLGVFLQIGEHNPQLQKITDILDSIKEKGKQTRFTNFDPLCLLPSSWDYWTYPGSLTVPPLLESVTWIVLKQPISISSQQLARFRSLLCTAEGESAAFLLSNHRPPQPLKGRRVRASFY
Sequence of Carbonic anhydrase 1 (Homo sapiens) (P00915 2-261 limits assumed): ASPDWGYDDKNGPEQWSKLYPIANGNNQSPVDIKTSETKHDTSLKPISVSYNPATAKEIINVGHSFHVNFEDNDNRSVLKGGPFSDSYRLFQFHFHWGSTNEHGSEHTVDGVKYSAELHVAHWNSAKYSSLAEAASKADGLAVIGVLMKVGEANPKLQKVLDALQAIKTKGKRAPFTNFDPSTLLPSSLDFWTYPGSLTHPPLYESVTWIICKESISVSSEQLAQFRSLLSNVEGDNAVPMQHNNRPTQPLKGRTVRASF
Sequence of Carbonic anhydrase 12 (Homo sapiens) (O43570 whole entry, the tested form may be a part): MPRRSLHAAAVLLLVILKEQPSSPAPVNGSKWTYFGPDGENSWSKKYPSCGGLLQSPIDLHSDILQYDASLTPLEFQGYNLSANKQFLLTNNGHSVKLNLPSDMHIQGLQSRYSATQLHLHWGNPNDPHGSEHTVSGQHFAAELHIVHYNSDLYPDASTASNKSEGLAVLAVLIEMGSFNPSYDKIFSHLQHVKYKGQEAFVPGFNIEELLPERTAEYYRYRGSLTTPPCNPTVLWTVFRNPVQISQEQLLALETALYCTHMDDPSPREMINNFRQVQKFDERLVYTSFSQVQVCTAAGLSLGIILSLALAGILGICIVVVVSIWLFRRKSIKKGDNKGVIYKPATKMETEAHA

| KA [1] [µM] | SMILES | KA [2] [µM] | Activity [3] [%] | KA [4] [µM] | KA [5] [µM] | KA [6] [µM] | KA [7] [µM] | KA [8] [µM] | KA [9] [µM] | KA [10] [µM] | KA [11] [µM] | KA [12] [µM] | KA [13] [µM] | half-life [14] [h] | Activity [15] [%] | Activity [16] [%] |
| --- | --- | --- | --- | --- | --- | --- | --- | --- | --- | --- | --- | --- | --- | --- | --- | --- |
| 9.54 | NCCN1CCNCC1 |  |  |  |  |  |  |  |  |  |  |  |  |  |  |  |
| 6.5 | NCCc1c[nH]cn1 |  |  |  |  |  |  |  |  |  |  |  |  |  |  |  |

| SMILES | KA [1] [µM] | KA [2] [µM] | Activity [3] [%] | KA [4] [µM] | KA [5] [µM] | KA [6] [µM] | KA [7] [µM] | KA [8] [µM] | KA [9] [µM] | KA [10] [µM] | KA [11] [µM] | KA [12] [µM] | KA [13] [µM] | half-life [14] [h] | Activity [15] [%] | Activity [16] [%] |
| --- | --- | --- | --- | --- | --- | --- | --- | --- | --- | --- | --- | --- | --- | --- | --- | --- |
| CCCc1nn(C)c2c(=O)[nH]c(-c3cc(S(=O)(=O)N4CCN(C)CC4)ccc3OCC)nc12.O=C(O)CC(O)(CC(=O)O)C(=O)O [SILDENAFIL CITRATE] | 2.37 | 27.5 | 84.47 | 1.08 | 6.54 | 73 | 34 | 13.4 | 72.9 | 16.8 | 31.3 | 15.2 | 32.4 | 4 | 79.19 | 59.6 |
